From patent US20160061816A1, “SCREENING METHOD FOR ION CHANNEL MODULATORS USING MUTATED BKCA CHANNEL” (GWANGJU INSTITUTE OF SCIENCE AND TECHNOLOGY, priority 2013, published 2016)

What was measured:
[1] = target: T1, G733D/N736K BKCa channel (Homo sapiens, UniProt Q12791, G856D/N859K); assay: FluxOR fluorescence-based assay, cells stably expressing G733D/N736K BKCa channel; type: cell-based
T1 construct: NO: 4; expressed in transfected cells
Protocol: (§1) Commercially available FluxOR™ Potassium Ion Channel Assay (Invitrogen) was used in order to perform a fluorescence-based assay for BKCa channels. AD-293 cells stably expressing WT and G733D/N736K BKCa channels were plated onto a poly-D-lysine (Sigma)-coated 96-well microplate (Corning) (5×10^4 cells per well). Cells were pre-cultured with a test compound, CTBIC (4-chloro-7-(trifluoromethyl)-10H-benzofuro[3,2-b]indole-1-carboxylic acid) for 30 minutes in advance of the recording. The fluorescence signal was measured using a Synergy™ H1 Hybrid Multi-Mode Microplate Reader (BioTek Instrument, Inc., Winnoski, Vt.) with Gen5 software. […] The microplate was read every 15 seconds in order to identify whether or not the system of the present invention is suitable for high throughput screening using a standard fluorimeter.
(§2) Finally, the present inventors performed experiments to determine whether cells stably expressing hyperactive BKCa channels are suitable for high-throughput screening for channel activators. […] When cells reached 80% to 90% confluence, FluxOR™ signals were measured. Further, the fluorescence signals from parental AD-293 cell lines were measured as a control group. Prior to reading out the fluorescence, the cells were pre-treated with 10 μM CTBIC or DMSO (control group). […] Relative fluorescence unit (RFU) values increased up to 2.3-fold as compared to basal responses.

[2] = tested on: parental AD-293 cells; assay: FluxOR fluorescence-based assay, parental cell line (control); settings: 10 μM CTBIC, FIG. 5a
Protocol: as §1, §2

[3] = target: T1, G733D/N736K BKCa channel; assay: Patch clamp macroscopic current recording, G733D/N736K BKCa channel; type: cell-based
Protocol: (§3) Macroscopic current recordings were performed using a gigaohm seal patch clamp method. Patch pipettes were made from borosilicate glass (WPI, Sarasota, Fla.), and then fire polished with resistance of 3-5 MΩ. The channel currents were amplified using Axopatch 200B amplifier (Axon Instruments, Foster City, Calif.), low-pass filtered at 1 or 2 kHz using a four-pole Bessel filter, and then digitized at a rate of 10 or 20 points/ms using a Digidata 1200 A digitizer (Axon Instruments). The ionic currents of BKCa channels were activated by voltage-clamped pulses delivered from a holding potential of −100 mV to membrane potentials ranging from −80 mV to 200 mV in increments of 10 mV. The intracellular and extracellular solutions contained, unless otherwise specified, 116 mM KOH (Sigma), 4 mM KCl (Sigma), 10 mM HEPES and 5 mM EGTA (Sigma), and were titrated to pH 7.2 using MES (2-(N-morpholino)ethanesulfonic acid). In order to precisely measure [Ca^2+]i, the appropriate amount of total […] to be added to the intracellular solution was calculated using MaxChelator software (Patton, et al., 2004; http://maxchelator.stanford.edu/).
In order to evaluate the suitability of cell lines stably expressing G733D/N736K channels as a platform for identification of BKCa channel modulators, the function of a strong BKCa channel activator, CTBIC, which potentiates mutated channel activity, was investigated (Gormemis, et al., 2005; Lee, et al., 2012). […] The relative conductance (G/Gmax) was obtained by normalizing the tail currents (evoked by a step hyperpolarization to −100 mV from a given voltage) to the maximum tail current. The G/Gmax values at 0 μM and 10 μM CTBIC were fitted using a Boltzmann function.

[4] = target: T2, WT BKCa channel (Homo sapiens, UniProt Q12791); assay: Patch clamp macroscopic current recording, WT BKCa channel; type: cell-based
T2 construct: expressed in transfected cells
Protocol: as §3, with “http://maxchelator.stanford.edu/). […]” for “http://maxchelator.stanford.edu/).”

[5] = target: T2, WT BKCa channel; assay: FluxOR fluorescence-based assay, cells stably expressing WT BKCa channel; settings: 10 μM CTBIC, stable cell lines expressing WT channel, FIG. 5b
Protocol: as §1, §2

T2 sequence (Q12791 1-1178 isoform Q12791-5): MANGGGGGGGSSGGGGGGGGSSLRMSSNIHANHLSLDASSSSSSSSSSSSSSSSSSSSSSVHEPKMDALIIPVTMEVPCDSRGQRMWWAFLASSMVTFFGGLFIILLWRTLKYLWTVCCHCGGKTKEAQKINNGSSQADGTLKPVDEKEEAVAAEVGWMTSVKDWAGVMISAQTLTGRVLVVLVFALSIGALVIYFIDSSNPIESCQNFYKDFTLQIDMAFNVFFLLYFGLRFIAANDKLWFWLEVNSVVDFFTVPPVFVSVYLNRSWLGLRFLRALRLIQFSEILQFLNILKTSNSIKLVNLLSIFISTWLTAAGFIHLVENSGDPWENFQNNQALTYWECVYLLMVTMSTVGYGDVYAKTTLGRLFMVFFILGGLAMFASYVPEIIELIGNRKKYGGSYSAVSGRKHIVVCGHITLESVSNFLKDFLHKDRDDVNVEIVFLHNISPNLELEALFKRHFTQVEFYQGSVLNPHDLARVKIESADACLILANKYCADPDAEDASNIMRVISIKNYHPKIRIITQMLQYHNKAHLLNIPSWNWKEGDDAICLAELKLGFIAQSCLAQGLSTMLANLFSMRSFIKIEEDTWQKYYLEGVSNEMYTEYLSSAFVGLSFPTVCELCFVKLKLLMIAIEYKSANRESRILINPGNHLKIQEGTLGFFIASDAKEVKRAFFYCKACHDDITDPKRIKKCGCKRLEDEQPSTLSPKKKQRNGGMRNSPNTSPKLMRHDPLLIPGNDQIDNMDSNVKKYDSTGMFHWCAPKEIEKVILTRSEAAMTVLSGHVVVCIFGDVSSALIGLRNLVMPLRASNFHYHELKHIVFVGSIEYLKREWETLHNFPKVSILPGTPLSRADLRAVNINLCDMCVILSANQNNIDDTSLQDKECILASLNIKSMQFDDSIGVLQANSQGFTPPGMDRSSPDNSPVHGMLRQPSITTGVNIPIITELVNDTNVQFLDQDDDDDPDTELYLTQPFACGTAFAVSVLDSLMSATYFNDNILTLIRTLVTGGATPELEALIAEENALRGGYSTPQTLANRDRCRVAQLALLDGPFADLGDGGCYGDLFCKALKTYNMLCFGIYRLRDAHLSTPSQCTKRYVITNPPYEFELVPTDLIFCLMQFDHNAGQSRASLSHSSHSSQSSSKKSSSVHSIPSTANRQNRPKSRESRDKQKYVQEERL
T1 sequence (Q12791 66-1178 isoform Q12791-5 G798D/N801K): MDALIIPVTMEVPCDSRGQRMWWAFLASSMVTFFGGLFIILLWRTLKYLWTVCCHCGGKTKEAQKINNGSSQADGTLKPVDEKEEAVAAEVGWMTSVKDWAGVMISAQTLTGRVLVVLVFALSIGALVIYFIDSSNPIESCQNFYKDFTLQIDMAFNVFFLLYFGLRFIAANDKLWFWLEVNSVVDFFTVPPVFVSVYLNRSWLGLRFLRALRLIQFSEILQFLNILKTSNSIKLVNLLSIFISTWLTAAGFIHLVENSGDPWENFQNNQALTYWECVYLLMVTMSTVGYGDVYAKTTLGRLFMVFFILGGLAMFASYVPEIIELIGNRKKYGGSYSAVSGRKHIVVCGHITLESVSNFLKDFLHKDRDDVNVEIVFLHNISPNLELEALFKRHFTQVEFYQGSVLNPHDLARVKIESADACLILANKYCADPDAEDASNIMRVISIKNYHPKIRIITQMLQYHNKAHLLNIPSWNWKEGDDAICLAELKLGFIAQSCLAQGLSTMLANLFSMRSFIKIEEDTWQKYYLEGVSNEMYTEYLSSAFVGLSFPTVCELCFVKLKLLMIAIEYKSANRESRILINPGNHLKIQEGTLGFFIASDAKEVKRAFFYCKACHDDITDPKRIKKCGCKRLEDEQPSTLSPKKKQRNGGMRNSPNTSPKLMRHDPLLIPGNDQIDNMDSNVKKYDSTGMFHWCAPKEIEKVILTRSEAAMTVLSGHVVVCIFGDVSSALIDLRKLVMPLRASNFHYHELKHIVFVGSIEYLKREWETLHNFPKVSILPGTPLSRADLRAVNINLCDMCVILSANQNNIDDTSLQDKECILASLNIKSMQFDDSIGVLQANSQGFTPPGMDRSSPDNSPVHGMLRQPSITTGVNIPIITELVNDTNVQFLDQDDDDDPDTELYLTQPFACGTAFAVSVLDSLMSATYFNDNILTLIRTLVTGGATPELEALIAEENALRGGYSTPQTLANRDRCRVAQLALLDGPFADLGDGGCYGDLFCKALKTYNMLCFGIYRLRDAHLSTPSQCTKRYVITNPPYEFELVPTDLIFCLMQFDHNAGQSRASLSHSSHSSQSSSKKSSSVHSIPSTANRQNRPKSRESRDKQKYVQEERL

`O=C(O)c1ccc(Cl)c2c1[nH]c1c3ccc(C(F)(F)F)cc3oc12` [CTBIC, 4-chloro-7-(trifluoromethyl)-10H-benzofuro[3,2-b]indole-1-carboxylic acid] was tested, and the “Relative fluorescence unit (RFU) increase as compared to basal responses” value ([1]; 10 μM CTBIC, 30 min pre-treatment, AD-293 cells stably expressing G733D/N736K channel, stimulus buffer 10 mM free K+) was “up to 2.3 fold”, the “increase in fluorescence signals” value ([1]; stimulus with 10 μM CTBIC, FIG. 5c) was ~2.3 times and the “impact on the induced fluorescence increase” value [2] was “minimum impact”. For the same compound, the “effect on ionic current” value ([3]; 10 μM CTBIC added to membrane patch, 100 nM [Ca2+]i, FIG. 4b) was “strongly potentiated”, the “shift of G-V curve” value ([3]; 10 μM CTBIC, FIG. 4c) was “shifted in the negative direction” and the “shift in V1/2 value (V1/2 free vs. V1/2 10 μM)” value ([3]; 10 μM CTBIC, compared with WT channel, FIG. 4d) was “much larger than the shift for the WT channel”. The “effect on ionic current” value ([4]; 10 μM CTBIC added to membrane patch, 100 nM [Ca2+]i, FIG. 4a) was “strongly potentiated”, the “shift of G-V curve” value ([4]; 10 μM CTBIC, FIG. 4c) was “shifted in the negative direction” and the fluorescence increase [5] was “about 1.3 fold”.
